{
  "source": "patent US7470509B2",
  "about": "“Compositions and methods for the identification, assessment, prevention and therapy of ovarian cancer” (Millennium Pharmaceuticals, Inc., priority 2002, dated 2008)",
  "origin": "cited, not measured here",
  "test_system": "tumor",
  "conditions": "U.S. Pat. No. 5,840,929",
  "data": [
    {"smiles": "CC(=O)O[C@@]12CO[C@@H]1C[C@H](O)[C@@]1(C)C(=O)[C@H](O)C3=C(C)[C@@H](OC(=O)[C@H](O)[C@@H](NC(=O)OC(C)(C)C)c4ccccc4)C[C@@](O)([C@@H](OC(=O)c4ccccc4)[C@H]21)C3(C)C", "note": "[Taxotere, docetaxel]", "values": [
      {"measurement": "anti-tumor activity in animal models", "value": "good anti-tumor activity"}
    ]}
  ]
}
